# From US8263606B2 (Xenon Pharmaceuticals Inc., priority 2008, dated 2012)
# Assays:
# sodium channel = experiment: Guanidine influx assay (14C-guanidine radiotracer flux, in vitro); format: cell-based, human or rat; details: guanidine influx assay using a known cell line that expresses a sodium channel
# How it was run: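 Cells stably expressing human or rat sodium channels (~100,000/well, 20–24 h) were exposed in low-sodium choline buffer to test agent plus aconitine activator and 14C-guanidine at ambient temperature. Intracellular 14C-guanidine was counted by scintillation; IC50 fitted by 4-parameter logistic over half-dilutions around 1 μM.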
# CYP3A4 = CYP3A4 (Homo sapiens, UniProt P08684); experiment: Cytochrome P450 (CYP450) Inhibition Assay, CYP3A4 (Vivid fluorescence, BOMCC substrate); details: human, P450 Baculosomes (recombinant CYP3A4), probe BOMCC (Vivid substrate)
# CYP3A4, sequence (P08684 whole entry): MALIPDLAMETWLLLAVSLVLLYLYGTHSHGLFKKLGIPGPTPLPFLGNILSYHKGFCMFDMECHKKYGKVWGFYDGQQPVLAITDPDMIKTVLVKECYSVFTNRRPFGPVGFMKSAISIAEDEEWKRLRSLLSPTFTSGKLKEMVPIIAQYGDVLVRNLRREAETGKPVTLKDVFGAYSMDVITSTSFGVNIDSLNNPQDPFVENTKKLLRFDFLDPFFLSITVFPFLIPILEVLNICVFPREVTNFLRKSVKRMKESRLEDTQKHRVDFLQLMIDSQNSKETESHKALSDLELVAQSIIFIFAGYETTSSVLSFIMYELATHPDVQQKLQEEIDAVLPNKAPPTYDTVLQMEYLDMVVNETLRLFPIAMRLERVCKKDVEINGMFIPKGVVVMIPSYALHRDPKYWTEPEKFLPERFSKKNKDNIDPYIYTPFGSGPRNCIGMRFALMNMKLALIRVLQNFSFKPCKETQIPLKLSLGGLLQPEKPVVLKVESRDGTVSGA
melting point [°C],IC50 (sodium channel; activity level class) [nM],inhibition at 10 µM (CYP3A4) [%],IC50 (sodium channel) [nM],SMILES
164 to 166,1 to 100,> 50,–,"O=C1N(Cc2ccc3nonc3c2)c2ccccc2C12COc1cc3c(cc12)OCCO3 (stereo not drawn) [Example 4.122, 1-(2,1,3-benzoxadiazol-5-ylmethyl)-2,3-dihydrospiro[furo[2,3-g][1,4]benzodioxine-8,3′-indol]-2′(1′H)-one]"
215 to 218,–,> 50,100 to 1000,"CN(C)c1ccc(-c2cccc3c2C2(COc4cc5c(cc42)OCO5)C(=O)N3Cc2ccc(Cl)s2)cn1 (stereo not drawn) [Example 16.12, 1′-[(5-chloro-2-thienyl)methyl]-4′-[6-(dimethylamino)pyridin-3-yl]spiro[furo[2,3-f][1,3]benzodioxole-7,3′-indol]-2′(1′H)-one]"
170 to 173,–,< 50,1 to 100,"Cc1noc2cc3c(cc12)C1(CO3)C(=O)N(Cc2cnccn2)c2ccccc21 (stereo not drawn) [Example 9.56, 3-methyl-1′-(pyrazin-2-ylmethyl)spiro[furo[3,2-f][1,2]benzisoxazole-5,3′-indol]-2′(1′H)-one]"
195 to 197,–,> 50,100 to 1000,"O=C(Nc1ccccc1F)c1ccccc1CN1C(=O)C2(COc3cc4c(cc32)CCO4)c2ccccc21 (stereo not drawn) [Example 12.12, N-(2-fluorophenyl)-2-[(2′-oxo-5,6-dihydrospiro[benzo[1,2-b:5,4-b′]difuran-3,3′-indol]-1′(2′H)-yl)methyl]benzamide]"
121 to 130,1000 to 10000,> 50,–,"O=C1CC[C@@H](CN2C(=O)C3(COc4cc5c(cc43)OCO5)c3ccccc32)N1 (stereo partly drawn) [Example 4.72, 1′-{[(2S)-5-oxopyrrolidin-2-yl]methyl}spiro[furo[2,3-f][1,3]benzodioxole-7,3′-indol]-2′(1′H)-one]"
137 to 139,–,< 50,1 to 100,"O=C1N(Cc2nnc(C(F)(F)F)o2)c2ccccc2C12COc1cc3c(cc12)OCCO3 (stereo not drawn) [Example 11.92, 1′-{[5-(trifluoromethyl)-1,3,4-oxadiazol-2-yl]methyl}-2,3-dihydrospiro[furo[2,3-g][1,4]benzodioxine-8,3′-indol]-2′(1′H)-one]"
187 to 189,–,> 50,100 to 1000,"O=C1N(Cc2ccnnc2)c2ccccc2C12COc1cc3c(cc12)CCO3 (stereo not drawn) [Example 10, 1-(pyridazin-4-ylmethyl)-5,6-dihydrospiro[benzo[1,2-b:5,4-b′]difuran-3,3′-indol]-2′(1′H)-one]"
78 to 82,1 to 100,< 50,–,"O=C1N(C[C@H]2CCCO2)c2cccc(Cl)c2C12COc1cc3c(cc12)CCO3 (stereo partly drawn) [Example 4.34, 4′-chloro-1′-[(2R)-tetrahydrofuran-2-ylmethyl]-5,6-dihydrospiro[benzo[1,2-b:5,4-b′]difuran-3,3′-indol]-2′(1′H)-one]"
174 to 175,–,< 50,1 to 100,"Cc1nc(-c2ccc(CN3C(=O)C4(COc5cc6c(cc54)OCCO6)c4ccccc43)cc2)no1 (stereo not drawn) [Example 11.84, 1′-[4-(5-methyl-1,2,4-oxadiazol-3-yl)benzyl]-2,3-dihydrospiro[furo[2,3-g][1,4]benzodioxine-8,3′-indol]-2′(1′H)-one]"
192 to 193,100 to 1000,< 50,–,"O=C1N(C[C@H]2CCCO2)c2c(Cl)cccc2C12COc1cc3c(cc12)CCO3 (stereo partly drawn) [Example 8.1, 7′-chloro-1′-[(2R)-tetrahydrofuran-2-ylmethyl]-5,6-dihydrospiro[benzo[1,2-b:5,4-b′]difuran-3,3′-indol]-2′(1′H)-one]"
205 to 206,100 to 1000,< 50,–,"O=C1N(Cc2ccccn2)c2ccccc2C12COc1c2ccc2c1OCCO2 (stereo not drawn) [Example 5.36, 1-(pyridin-2-ylmethyl)-2,3-dihydrospiro[furo[2,3-f][1,4]benzodioxine-7,3′-indol]-2′(1′H)-one]"
> 250,1000 to 10000,< 50,–,"Cn1c(=O)oc2cc3c(cc21)C1(CO3)C(=O)N(C[C@H]2CCCO2)c2ccccc21 (stereo partly drawn) [Example 4.60, 1-methyl-1′-[(2R)-tetrahydrofuran-2-ylmethyl]spiro[furo[3,2-f][1,3]benzoxazole-7,3′-indole]-2,2′(1′H,1′H)-dione]"
137 to 139,100 to 1000,< 50,–,"O=C1N(C[C@H]2CCCO2)c2cc(F)ccc2C12COc1cc3c(cc12)CCO3 (stereo partly drawn) [Example 9.19, 6′-fluoro-1′-[(2R)-tetrahydrofuran-2-ylmethyl]-5,6-dihydrospiro[benzo[1,2-b:5,4-b′]difuran-3,3′-indol]-2′(1′H)-one]"
149 to 151,–,> 50,100 to 1000,"CC(C)OCCCNC(=O)CN1C(=O)C2(COc3cc4c(cc32)CCO4)c2ccccc21 (stereo not drawn) [Example 12.50, N-[3-(1-methylethoxy)propyl]-2-(2′-oxo-5,6-dihydrospiro[benzo[1,2-b:5,4-b′]difuran-3,3′-indol]-1′(2′H)-yl)acetamide]"
213 to 215,–,< 50,1 to 100,"N#Cc1cccc(CN2C(=O)C3(COc4cc5c(cc43)OCCO5)c3ccccc32)n1 (stereo not drawn) [Example 41, 6-[(2′-oxo-2,3-dihydrospiro[furo[2,3-g][1,4]benzodioxine-8,3′-indol]-1′(2′H)-yl)methyl]pyridine-2-carbonitrile]"
192 to 194,100 to 1000,< 50,–,"Cc1noc2cc3c(cc12)C1(CO3)C(=O)N(Cc2ccc(-c3ccno3)cc2)c2ccccc21 (stereo not drawn) [Example 4.99, 1′-(4-isoxazol-5-ylbenzyl)-3-methylspiro[furo[3,2-f][1,2]benzisoxazole-5,3′-indol]-2′(1′H)-one]"
165 to 168,100 to 1000,< 50,–,"Cc1cc2c(cc1C)C1(CO2)C(=O)N(Cc2ccccn2)c2ccccc21 (stereo not drawn) [Example 9.28, 5,6-dimethyl-1′-(pyridin-2-ylmethyl)spiro[1-benzofuran-3,3′-indol]-2′(1′H)-one]"
234 to 235,–,> 50,100 to 1000,"Cc1ccc(NC(=O)c2cccc(CN3C(=O)C4(COc5cc6c(cc54)CCO6)c4ccccc43)c2)c(C)c1 (stereo not drawn) [Example 12.4, N-(2,4-dimethylphenyl)-3-[(2′-oxo-5,6-dihydrospiro[benzo[1,2-b:5,4-b′]difuran-3,3′-indol]-1′(2′H)-yl)methyl]benzamide]"
200 to 202,–,> 50,1 to 100,"CN(C)c1ncc(CN2C(=O)C3(COc4cc5c(cc43)OCO5)c3ccccc32)s1 (stereo not drawn) [Example 11.1, 1′-{[2-(dimethylamino)-1,3-thiazol-5-yl]methyl}spiro[furo[2,3-f][1,3]benzodioxole-7,3′-indol]-2′(1′H)-one]"
220 to 222,–,< 50,100 to 1000,"NC(=O)c1ccc2c(c1)C1(COc3cc4c(cc31)OCCO4)C(=O)N2Cc1ccccn1 (stereo not drawn) [Example 31, 2′-oxo-1′-(pyridin-2-ylmethyl)-1′,2,2′,3-tetrahydrospiro[furo[2,3-g][1,4]benzodioxine-8,3′-indole]-5′-carboxamide]"
151 to 153,100 to 1000,< 50,–,"O=C1N(Cc2ccc(OCc3ccccc3)cc2)c2ccccc2[C@]12COc1cc3c(cc12)OCCO3 [Example 9.39, (8S)-1′-[4-(Benzyloxy)Benzyl]-2,3-Dihydrospiro[Furo[2,3-g][1,4]Benzodioxine-8,3′-Indol]-2′(1′H)-One]"
187 to 188,–,> 50,100 to 1000,"COc1cc(OC)c2c(c1)N(Cc1ccccn1)C(=O)C21COc2cc3c(cc21)OCCO3 (stereo not drawn) [Example 9.74, 4′,6′-dimethoxy-1′-(pyridin-2-ylmethyl)-2,3-dihydrospiro[furo[2,3-g][1,4]benzodioxine-8,3′-indol]-2′(1′H)-one]"
105 to 107,100 to 1000,> 50,–,"COCCOCCN1C(=O)C2(COc3cc4c(cc32)CCO4)c2ccccc21 (stereo not drawn) [Example 9.1, 1′-[2-(2-methoxyethoxy)ethyl]-5,6-dihydrospiro[benzo[1,2-b:5,4-b′]difuran-3,3′-indol]-2′(1′H)-one]"
85 to 87,1 to 100,> 50,–,"O=C1N(Cc2ccc(Cl)s2)c2cccc(Br)c2C12COc1cc3c(cc12)OCO3 (stereo not drawn) [Example 4.86, 4′-bromo-1′-[1(5-chloro-2-thienyl)methyl]spiro[furo[2,3-f][1,3]benzodioxole-7,3′-indol]-2′(1′H)-one]"
160 to 162,100 to 1000,< 50,–,"COc1cc2c(cc1F)C1(CO2)C(=O)N(Cc2ccccc2)c2ccccc21 (stereo not drawn) [Example 4.67, 1′-benzyl-5-fluoro-6-methoxyspiro[1-benzofuran-3,3′-indol]-2′(1′H)-one]"
> 250,–,> 50,1000 to 10000,"Cc1cccc(C)c1NC(=O)c1ccc(CN2C(=O)C3(COc4cc5c(cc43)CCO5)c3ccccc32)cc1 (stereo not drawn) [Example 12.35, N-(2,6-dimethylphenyl)-4-[(2′-oxo-5,6-dihydrospiro[benzo[1,2-b:5,4-b′]difuran-3,3′-indol]-1′(2′H)-yl)methyl]benzamide]"
> 200,1000 to 10000,> 50,–,"O=C1Nc2ccccc2C12COc1cc(F)c(F)cc12 (stereo not drawn) [Example 3.44, 5,6-difluorospiro[1-benzofuran-3,3′-indol]-2′(1′H)-one]"
